The values below come from PubChem BioAssay (NCI).

Where “and” joins values, the source holds several entries; their conditions need not be identical. Equal entries are not always repeated.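 The compound was tested at five concentrations on cells cultured in 96-well plates, with a 48-hour exposure period. Here, GI50 denotes the concentration required for 50% inhibition of growth. The concentration for full growth arrest is given as TGI.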

Among the test systems are 786-0 renal; A498 renal; LOX IMVI melanoma; OVCAR-3 ovarian; SF-295 CNS; SK-MEL-28 melanoma; SK-MEL-5 melanoma; SN12C renal; DU-145 prostate; PC-3 prostate.
Test in all cases: growth of human tumour cells (NCI), 48 h

As to `C=Cc1cncc(C#N)c1CCc1c(C#N)cncc1C=C`, the GI50 with 786-0 renal, in the assay with A498 renal, in the assay with OVCAR-3 ovarian, with SF-295 CNS, in the assay on SK-MEL-5 melanoma and in the assay on SN12C renal was over 100 µM each time. The TGI in the assay with 786-0 renal is over 100 µM; with A498 renal, over 100 µM; with LOX IMVI melanoma, over 100 µM; with OVCAR-3 ovarian, over 100 µM; with SF-295 CNS, over 100 µM; with SK-MEL-28 melanoma it was over 10 µM. The TGI in the assay on SK-MEL-5 melanoma and with SN12C renal was over 100 µM in each case.

Take `O=C1C=CC(=O)C2=C1[C@@H](O)C1CC=CC3C(=O)O[C@@H]2C31` (some centres not stated): the TGI in the assay with 786-0 renal was over 55.2 µM; in the assay on A498 renal it was over 100 µM; in the assay on LOX IMVI melanoma, 50.1 µM; with OVCAR-3 ovarian, 36.8 µM; in the assay with SF-295 CNS, over 100 µM; in the assay with SK-MEL-28 melanoma, over 62.3 µM. Moreover, the TGI with SK-MEL-5 melanoma came out at 41.2 µM; in the assay with SN12C renal, 37.2 µM.

As to `O=C(O)CC[C@H](NC(=O)c1ccc(-n2nc3ccc(O)cc3nc2=O)cc1)C(=O)O`, the TGI with 786-0 renal, in the assay with A498 renal, with OVCAR-3 ovarian, in the assay on SF-295 CNS, with SK-MEL-28 melanoma and with SK-MEL-5 melanoma was over 100 µM in each case. Moreover, the TGI in the assay on SN12C renal is over 100 µM.

As to `C[C@H](OCc1ccccc1)C(=O)N1CCS(=O)(=O)N2CCC[C@@H]2C1=O`, the TGI with 786-0 renal, in the assay with A498 renal, with LOX IMVI melanoma, in the assay with OVCAR-3 ovarian, in the assay with SF-295 CNS and with SK-MEL-28 melanoma was over 100 µM throughout. Moreover, the TGI in the assay on SK-MEL-5 melanoma and in the assay on SN12C renal was over 100 µM throughout.

As for `O=C1CCCCC1S(=O)(=O)c1ccccc1` (configuration not stated), the TGI in the assay with 786-0 renal, with A498 renal, with LOX IMVI melanoma, with OVCAR-3 ovarian, in the assay with SF-295 CNS and with SK-MEL-28 melanoma was over 100 µM in each case. Further, the TGI in the assay with SK-MEL-5 melanoma and in the assay with SN12C renal was over 100 µM each time.

Regarding `O=S(=O)(/C=C/c1ccc(F)cc1)Cc1ccc(CS(=O)(=O)/C=C/c2ccc(F)cc2)cc1`, the TGI with 786-0 renal, in the assay on LOX IMVI melanoma, with OVCAR-3 ovarian, in the assay with SF-295 CNS, in the assay on SK-MEL-28 melanoma and with SK-MEL-5 melanoma was over 100 µM throughout. Besides, the TGI in the assay with SN12C renal is over 100 µM.

For `COc1ccc(/C=C/c2cc(OC)c(OC)c(OC)c2)cc1`, the TGI in the assay on 786-0 renal is over 100 µM; in the assay on A498 renal, over 100 µM; in the assay on LOX IMVI melanoma, over 100 µM; with OVCAR-3 ovarian, 17.7 µM; in the assay with SF-295 CNS, 61.3 µM; in the assay on SK-MEL-28 melanoma it was 96.8 µM. For the same compound, the figures for the TGI in the assay with SK-MEL-5 melanoma and in the assay on SN12C renal were over 85.4 µM and over 100 µM, respectively. Further, the GI50 with SF-295 CNS was 21.9 µM.

Consider `CC(CN(C)C)/C(=N\Nc1ccccc1)c1ccccc1` (configuration not stated), for which the TGI is 29.5 µM in the assay with 786-0 renal; over 100 µM in the assay with A498 renal; 4.16 µM in the assay with LOX IMVI melanoma; 6.83 µM in the assay with OVCAR-3 ovarian; 0.358 µM with SF-295 CNS; 5.79 µM in the assay on SK-MEL-28 melanoma. Further, the TGI in the assay with SK-MEL-5 melanoma was 17.5 µM; in the assay on SN12C renal it was over 100 µM.

On to `CCOc1cc2c(C(=O)CC)c(O)ccc2o1`, for which the TGI in the assay on 786-0 renal is over 100 µM; in the assay with A498 renal, over 94.4 µM; in the assay with LOX IMVI melanoma, over 100 µM; in the assay with OVCAR-3 ovarian, over 100 µM; in the assay with SF-295 CNS, over 100 µM; with SK-MEL-28 melanoma it was over 58.4 µM. The TGI in the assay on SK-MEL-5 melanoma is over 63.3 µM; with SN12C renal, over 100 µM.

For the compound `COC(C(=O)NN)c1ccccc1` (configuration not stated), the TGI with 786-0 renal, in the assay on DU-145 prostate, with OVCAR-3 ovarian, in the assay with PC-3 prostate, in the assay with SF-295 CNS and in the assay on SK-MEL-28 melanoma was over 100 µM throughout. Further, the TGI in the assay on SK-MEL-5 melanoma and in the assay on SN12C renal was over 100 µM in each case.

With `Cc1cn(C2CC3C(COCN3O)O2)c(=O)[nH]c1=O` (configuration not stated), the TGI in the assay on 786-0 renal, in the assay on LOX IMVI melanoma, in the assay on OVCAR-3 ovarian, with SF-295 CNS, in the assay on SK-MEL-28 melanoma and in the assay with SK-MEL-5 melanoma was over 100 µM each time. This compound also showed a TGI with SN12C renal of over 100 µM.

As for `C[C@@]12CCC(=O)c3coc(c31)C(=O)c1cc3c(cc12)C(=O)C=CC3=O`, the GI50 in the assay on 786-0 renal, with LOX IMVI melanoma, with OVCAR-3 ovarian, in the assay on SF-295 CNS, in the assay with SK-MEL-28 melanoma and in the assay with SK-MEL-5 melanoma was over 1 µM each time. In addition, the GI50 in the assay with SN12C renal was over 1 µM. Moreover, the TGI in the assay with 786-0 renal is > 1 µM and 31 µM; with A498 renal, over 100 µM; with LOX IMVI melanoma, > 1 µM and 20.9 µM; with OVCAR-3 ovarian, > 1 µM and 32.7 µM; in the assay with SF-295 CNS, > 1 µM and 31.1 µM; in the assay with SK-MEL-28 melanoma it was > 1 µM and 29.9 µM. Besides, the TGI in the assay with SK-MEL-5 melanoma was > 1 µM and 28.3 µM; with SN12C renal, > 1 µM and 30.7 µM.

`O=C(c1ccc(Cl)cc1Cl)C1[C@H]2C(=O)N(c3ccc(Cc4ccc(N5C(=O)[C@@H]6ON(c7ccccc7)C(C(=O)c7ccc(Cl)cc7Cl)[C@@H]6C5=O)cc4)cc3)C(=O)[C@H]2ON1c1ccccc1` (some centres not stated): the TGI in the assay on 786-0 renal, in the assay on A498 renal, in the assay on LOX IMVI melanoma, in the assay with OVCAR-3 ovarian, in the assay on SF-295 CNS and in the assay with SK-MEL-28 melanoma was over 50 µM each time. In addition, the TGI in the assay with SK-MEL-5 melanoma and in the assay on SN12C renal was over 50 µM throughout.

In the case of `COc1c(O)c2c3c(cc(C)cc3c1C(C)C)OC2`, the TGI in the assay with 786-0 renal, in the assay on LOX IMVI melanoma, with OVCAR-3 ovarian, with SF-295 CNS, in the assay with SK-MEL-28 melanoma and with SK-MEL-5 melanoma was over 100 µM throughout. The TGI in the assay with SN12C renal is over 100 µM.
